Measurements published in patent US11827645B2, “Spiro-γ-Lactams, and preparation method and use thereof” (Chongqing University of Arts and Sciences, priority 2020, dated 2023).

System: human pancreatic cell lines PANC
Experiment: MTT assay of cancer cell viability, PANC cells
Format: cell-based
Excerpt: To evaluate potentials for developing a drug leading from the synthesized compounds, the MTT assay was used to measure cancer cell viability upon the drug treatment. Two cancer cell lines (PANC and U87) were selected, which are some of the representing solid tumor cell lines in the National Cancer Institute's 60 human tumor cell lines panel (see FIG. 1A).

IC50 (human pancreatic cell lines PANC): 92 nM
Structure (SMILES): Cc1cccc(C)c1N1C(=O)C2(C=CC(=O)N2c2ccc(CNC(=O)OC(C)(C)C)cc2)C2C(=O)c3ccccc3OC21 (centres unmarked) [Compound 6j, Tert-butyl (4-(1-(2,6-dimethylphenyl)-2,4,5′-trioxo-1,3a,4,9a-tetrahydro-2H-spiro[chromeno[2,3-b]pyrrole-3,2′-pyrrol]-1′(5′H)-yl)benzyl)carbamate]
anticancer activities (cancer cell viability, PANC): excellent anticancer activities
